System: human liver carcinoma cell lines including Hep G2, Hep 3G and Hep 5J
Assay: Summary of Examples 1 and 2 over the three liver carcinoma cell lines
Format: cell-based
Method: This example used human liver carcinoma cell lines including Hep G2, Hep 3G and Hep 5J for experiments, and the cells were cultured in 96-well plates. The experiments were divided into two groups including a pre-treatment group and a co-treatment group. The cells in the pre-treatment group were pre-treated with the Ganoderma ethanolic extracts for 24 hours and then treated with the amphotericin B for 48 hours, while the cells in the co-treatment group were co-treated with the Ganoderma ethanolic extracts and the amphotericin B together for 48 hours.
In the pre-treatment group, the cells were pre-treated with the Ganoderma ethanolic extracts at concentrations of 0, 1, 2.5 and 5 mg/ml for 24 hours, and then treated with the amphotericin B at concentrations between 0-80 μM for 48 hours, followed by MTT assay. In the co-treatment group, the cells were co-treated with the Ganoderma ethanolic extracts at concentrations of 0, 1, 2.5 and 5 mg/ml and the amphotericin B at concentrations between 0-80 μM for 48 hours, followed by MTT assay. The MTT solution (3-(4,5-Dimethylthiazol-2-yl)-2,5-diphenyltetrazolium bromide) was added to each well, and the plates were further incubated for 45-60 minutes. The cell culture medium was then removed and replaced by DMSO (dimethyl sulfoxide). Subsequently, the optical density (OD) was measured at 550 nm. […]

## C[C@@H]1[C@H](O)[C@@H](C)/C=C/C=C/C=C/C=C/C=C/C=C/C=C/[C@H](O[C@@H]2O[C@H](C)[C@@H](O)[C@H](N)[C@@H]2O)C[C@@H]2O[C@](O)(C[C@@H](O)C[C@@H](O)[C@H](O)CC[C@@H](O)C[C@@H](O)CC(=O)O[C@H]1C)C[C@H](O)[C@H]2C(=O)O [amphotericin B]
After pre-treatment with the Ganoderma ethanolic extract, from the examples
  effective dose of the amphotericin B: at least 3 μM
Based on the results from Examples 1 and 2
  safe and effective dose of the amphotericin B: 3 to 10 µM

— patent US20190091272A1, “ANTI-CANCER DRUG COMPOSITION INCLUDING GANODERMA EXTRACT AND AMPHOTERICIN B” (Taiwan Indigena Botanica Co., Ltd., priority 2015, published 2019)
